Converted amounts (≈) assume the structure as drawn. Where two headings read alike, the source gives them in different places.
What was measured:
[1] = tested on: Enterococcus faecalis (EFA); assay: MIC, two-fold agar dilution (CLSI), clinical isolates; format: cell-based
How it was run: (§1)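 Following the American Clinical and Laboratory Standards Institute procedure, agar two-fold dilution served to determine minimum inhibitory concentrations.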

[2] = tested on: Escherichia coli (including ESBLs, non-ESBLs); assay: as above; format: cell-based
How it was run: as §1

[3] = tested on: methicillin-resistant Staphylococcus aureus (MRSA); assay: as above; format: cell-based
How it was run: as §1

[4] = tested on: methicillin-resistant Staphylococcus epidermidis (MRSE); assay: as above; format: cell-based
How it was run: as §1

[5] = tested on: methicillin-sensitive Staphylococcus aureus (MSSA); assay: as above; format: cell-based
How it was run: as §1

[6] = tested on: methicillin-sensitive Staphylococcus epidermidis (MSSE); assay: as above; format: cell-based
How it was run: as §1

[7] = tested on: HCT-116 colorectal cancer cell line; assay: CCK-8 proliferation inhibition; format: cell-based; conditions: Homo sapiens, HCT-116, 72 h, read-out: HCT116 inhibition rate/%
How it was run: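 Cells seeded at 2000 cells/well, cultured overnight at 37 °C, 5% CO2, then exposed to compound (DMSO; control 1‰ DMSO) for 72 h in McCoy's 5A with 10% newborn bovine serum. Viability read with 1:10 diluted CCK-8.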

[8] = tested on: methemoglobin in blood samples of three healthy volunteers; assay: Toxicity on methemoglobin in vitro (whole blood with S9 and NADPH, absorbance at 630 nm); format: cell-based, human; conditions: for MetHb % (n = 3): 500 μM compound, whole blood + S9 + NADPH, 5 hours at 37° C.; for probability of methemoglobin formation in blood compared with the control drugs LBM415 and GSK1322322: toxicity test in vitro, in words
Description: Because PDF inhibitors such as LBM415 and GSK1322322 can produce active species such as aromatic hydroxylamine and aromatic hydrazines in metabolic process, and cause human methemoglobinemia. To this end, continuous wavelength method was adopted in this invention to scan the absorption spectrum of blood samples in the wavelength range of 500 to 700 nm in the ultraviolet-visible spectrophotometer, and the contents of methemoglobin in blood samples of three healthy volunteers were calculated, after being effected by the synthesized compounds.
Experimental materials: Nicotinamide adenine dinucleotide phosphate (NADPH) reduction system: glucose-6-disodium phosphate, nicotinamide adenine dinucleoside phosphate and glucose-6-phosphate dehydrogenase (purchased from Shanghai yuanye Bio-Technology Co., Ltd) were added to 1 mL of phosphate buffer solution (PBS, pH 7.4), and the mixture was shaked in a shaker type water bath at 37° C. for 10 min, and then cooled to 0° C. Mixed human hepatocytes fraction S9 was purchased from Xenotech (20 mg S9 protein/1 mL suspension medium). Compounds were prepared to stock solution at a concentration of 50 mM, which was stored at −20° C. for use. Dapsone was used as positive control experimental reagent, which was purchased from Sigma Aldrich. 1% w/v triton X-100 was self-prepared. Blood samples were collected using Vacutainer tubes containing EDTA anticoagulants (BD, Franklin Lakes, USA), which were sampled from three healthy volunteers and used immediately after sampling.
Preparation of incubation system for blood samples and drugs: 250 μL of incubation system was consist of 220 μL of whole blood, 25 μL of S9 (final concentration: 2 mg S9 protein/mL incubation solution), 2.5 μL of NADPH form system (final concentration: 10 mM G-6-P, 1 mM NADP, 7.5 Units/mL) and 2.5 μL of stock solution of a compound (final concentration 500 μM). […] of incubation system was placed in an Eppendorf tube and incubated for 5 hours at 37° C. in water bath.
Determination of the content of methemoglobin: 60 μL of an incubated sample was taken and lysed with 3.0 mL of 1% Triton X-100. The content of methemoglobin (MetHb) was measured by an ultraviolet-visible spectrophotometer, with the Triton X-100 solution used as blank control. A sample was placed in a cuvette, 1 minute later, the spectrums of the sample in the wavelength range from 500 nm to 700 nm were recorded. The sample was added with 2 mg of potassium ferricyanide, and was allowed to stay stationary for 2 minutes for completely oxidization of ferrous iron in the sample, and standard spectrum of methemoglobin with saturated potassium ferricyanide. The percentage of methemoglobin formation (MetHb %) was obtained by the ratio of absorbance at 630 nm. MetHb %=(A′−AB′)/AM′, wherein, A′ was the total absorbance of the sample at 630 nm, AB′ was the base absorbance of the reduced blood in the sample at 630 nm, and AM′ was the absorbance of oxidized blood with saturated potassium ferricyanide at 630 nm.

[9] = MIC in vitro anti-bacterial experiments, Gram-positive bacteria; format: cell-based; conditions: lowest MIC reached; read-out: minimum inhibitory concentration against Gram-positive bacteria
Source text: 1. The invention adopts the two-fold agar dilution method recommended by the operating procedure of antimicrobial susceptibility testing set by American Clinical and Laboratory Standards Institute (CLSI) to determine the Minimum Inhibitory Concentration (MIC) of the test samples against the tested strains.

[10] = strain printed MRSA 14-1 (second line of that name, r23, before MRSE 14-2)
[11] = concentration of 30 μM, 72 hours, CCK-8

Row | Structure (SMILES) | MIC (anti-bacterial activity) ([1]; strain EFA 14-1) [µg/mL] | MIC (anti-bacterial activity) ([1]; strain EFA 14-2) [µg/mL] | MIC (anti-bacterial activity) ([1]; strain EFA 14-3) [µg/mL] | MIC (anti-bacterial activity) ([1]; strain EFA 14-5) [µg/mL] | MIC (anti-bacterial activity) ([2]; strain ECO+ 14-1) [µg/mL] | MIC (anti-bacterial activity) ([2]; strain ECO+ 14-2) [µg/mL] | MIC (anti-bacterial activity) ([2]; strain ECO− 14-1) [µg/mL] | MIC (anti-bacterial activity) ([2]; strain ECO− 14-2) [µg/mL] | MIC (anti-bacterial activity) ([3]; strain MRSA 14-1) [µg/mL] | MIC (anti-bacterial activity) ([3]; strain MRSA 14-2) [µg/mL] | MIC (anti-bacterial activity) ([3]; strain MRSA 14-4) [µg/mL] | MIC (anti-bacterial activity) ([3]; strain MRSA 14-5) [µg/mL] | MIC (anti-bacterial activity) [3, 10] [µg/mL] | MIC (anti-bacterial activity) ([4]; strain MRSE 14-2) [µg/mL] | MIC (anti-bacterial activity) ([4]; strain MRSE 14-3) [µg/mL] | MIC (anti-bacterial activity) ([4]; strain MRSE 14-4) [µg/mL] | MIC (anti-bacterial activity) ([5]; strain MSSA 14-1) [µg/mL] | MIC (anti-bacterial activity) ([5]; strain MSSA 14-2) [µg/mL] | MIC (anti-bacterial activity) ([5]; strain MSSA 14-3) [µg/mL] | MIC (anti-bacterial activity) ([5]; strain MSSA 14-4) [µg/mL] | also measured
1 | CCCC[C@H](CN(O)C=O)C(=O)N1CC2(CC2)C[C@H]1C(=O)Nc1ccc(F)c[n+]1[O-] [Example 2] | 0.25 (≈ 0.592 µM) | 0.5 (≈ 1.18 µM) | 0.5 (≈ 1.18 µM) | 128 (≈ 303 µM) | 1 (≈ 2.37 µM) | 64 (≈ 151 µM) | 128 (≈ 303 µM) | 64 (≈ 151 µM) | 0.25 (≈ 0.592 µM) | 0.25 (≈ 0.592 µM) | 0.125 (≈ 0.296 µM) | 0.125 (≈ 0.296 µM) | 0.03 (≈ 0.071 µM) | 0.06 (≈ 0.142 µM) | 0.06 (≈ 0.142 µM) | 0.125 (≈ 0.296 µM) | 0.125 (≈ 0.296 µM) | 0.125 (≈ 0.296 µM) | 0.125 (≈ 0.296 µM) | 0.125 (≈ 0.296 µM) | MIC ([3]; Staphylococcus aureus, MRSA, range over strains, read-out: minimum inhibitory concentration MIC against methicillin-resistant Staphylococcus (MRSA)): 0.125 to 0.25 µg/mL (≈ 0.296 to 0.592 µM); MIC (anti-bacterial activity) ([6]; strain MSSE 14-1): 0.03 µg/mL (≈ 0.071 µM); MIC (anti-bacterial activity) ([6]; strain MSSE 14-2): 0.125 µg/mL (≈ 0.296 µM); MIC (anti-bacterial activity) ([6]; strain MSSE 14-3): 0.03 µg/mL (≈ 0.071 µM); MIC (anti-bacterial activity) ([6]; strain MSSE 14-4): 0.03 µg/mL (≈ 0.071 µM); inhibition at 30 µM [7, 11]: 2%; MetHb % (n = 3) [8]: 3.32 ± 0.05%; probability of methemoglobin formation in blood compared with the control drugs LBM415 and GSK1322322 [8]: lower probability of methemoglobin formation in blood
2 | CCCC[C@H](CN(O)C=O)C(=O)N1CC2(CC2)C[C@H]1C(=O)Nc1ccc(C)c(Nc2nccc(-c3cccnc3)n2)c1 [Example 4] | 0.03 (≈ 0.0525 µM) | 0.015 (≈ 0.0262 µM) | 0.03 (≈ 0.0525 µM) | > 128 | 4 (≈ 7 µM) | > 128 | > 128 | > 128 | 0.015 (≈ 0.0262 µM) | 0.015 (≈ 0.0262 µM) | < 0.008 | < 0.008 | < 0.008 | < 0.008 | < 0.008 | < 0.008 | 0.015 (≈ 0.0262 µM) | 0.015 (≈ 0.0262 µM) | 0.015 (≈ 0.0262 µM) | 0.015 (≈ 0.0262 µM) | MIC (anti-bacterial activity) ([6]; strain MSSE 14-1): 0.015 µg/mL (≈ 0.0262 µM); MIC (anti-bacterial activity) ([6]; strain MSSE 14-2): < 0.008 µg/mL; MIC (anti-bacterial activity) ([6]; strain MSSE 14-3): < 0.008 µg/mL; MIC (anti-bacterial activity) ([6]; strain MSSE 14-4): 0.015 µg/mL (≈ 0.0262 µM); inhibition at 30 µM [7, 11]: 18%; MIC [9]: < 0.008 µg/mL
3 | CCCC[C@H](CN(O)C=O)C(=O)N1CC2(CC2)C[C@H]1C(=O)Nc1cccc(Nc2ncccn2)c1 [Example 8] | 0.5 (≈ 1.04 µM) | 1 (≈ 2.08 µM) | 1 (≈ 2.08 µM) | 1 (≈ 2.08 µM) | 1 (≈ 2.08 µM) | 64 (≈ 133 µM) | 128 (≈ 266 µM) | 128 (≈ 266 µM) | 0.25 (≈ 0.52 µM) | 0.25 (≈ 0.52 µM) | 0.25 (≈ 0.52 µM) | 0.125 (≈ 0.26 µM) | 0.125 (≈ 0.26 µM) | 0.25 (≈ 0.52 µM) | 0.06 (≈ 0.125 µM) | 0.25 (≈ 0.52 µM) | 0.25 (≈ 0.52 µM) | 0.25 (≈ 0.52 µM) | 0.25 (≈ 0.52 µM) | 0.125 (≈ 0.26 µM) | MIC (anti-bacterial activity) ([6]; strain MSSE 14-1): 0.125 µg/mL (≈ 0.26 µM); MIC (anti-bacterial activity) ([6]; strain MSSE 14-2): 0.25 µg/mL (≈ 0.52 µM); MIC (anti-bacterial activity) ([6]; strain MSSE 14-3): 0.125 µg/mL (≈ 0.26 µM); MIC (anti-bacterial activity) ([6]; strain MSSE 14-4): 0.25 µg/mL (≈ 0.52 µM); inhibition at 30 µM [7]: 11%; MetHb % (n = 3) [8]: 4.12 ± 0.07%; probability of methemoglobin formation in blood compared with the control drugs LBM415 and GSK1322322 [8]: lower probability of methemoglobin formation in blood
4 | CCCC[C@H](CN(O)C=O)C(=O)N1CC2(CC2)C[C@H]1C(=O)Nc1nccc(-c2cccnc2)n1 [Example 9] | 0.5 (≈ 1.07 µM) | 0.5 (≈ 1.07 µM) | 1 (≈ 2.14 µM) | 0.5 (≈ 1.07 µM) | 2 (≈ 4.29 µM) | > 64 | > 64 | > 64 | 2 (≈ 4.29 µM) | 0.5 (≈ 1.07 µM) | 2 (≈ 4.29 µM) | 0.25 (≈ 0.536 µM) | 0.25 (≈ 0.536 µM) | 0.25 (≈ 0.536 µM) | 0.125 (≈ 0.268 µM) | 0.5 (≈ 1.07 µM) | 0.25 (≈ 0.536 µM) | 0.5 (≈ 1.07 µM) | 0.5 (≈ 1.07 µM) | 0.25 (≈ 0.536 µM) | MIC (anti-bacterial activity) ([6]; strain MSSE 14-1): 0.125 µg/mL (≈ 0.268 µM); MIC (anti-bacterial activity) ([6]; strain MSSE 14-2): 0.5 µg/mL (≈ 1.07 µM); MIC (anti-bacterial activity) ([6]; strain MSSE 14-3): 0.25 µg/mL (≈ 0.536 µM); MIC (anti-bacterial activity) ([6]; strain MSSE 14-4): 0.5 µg/mL (≈ 1.07 µM); inhibition at 30 µM [7]: 6%; MetHb % (n = 3) [8]: 1.13 ± 0.06%; probability of methemoglobin formation in blood compared with the control drugs LBM415 and GSK1322322 [8]: lower probability of methemoglobin formation in blood
